Source: ChEMBL document CHEMBL1201862, “PubChem BioAssay data set” (2004)
Values belong to the compound of their own block, whether it stands above or below them. Calls of active or inactive are those of the source.

Columns and labels:
[1] = target: T1, Kappa-type opioid receptor (Homo sapiens, UniProt P41145); experiment: kappa opioid receptor activation potency – imaging, image-based, SAR follow-up (AID 2359); format: functional
[2] = target: T1, Kappa-type opioid receptor; experiment: SAR analysis of small molecule agonists of the kappa opioid receptor via a luminescent beta-arrestin assay. [Related pubchem assays (depositor defined):AID1777, AID1786, AID1966, AID2133, AID2136, AID2348, AID2352, AID2357, AID2359, AID2370, AID2420, AID2478, AID2491, AID2492, AID2493, AID2497, AID2498, AID2500, AID449737, AID488822, AID488842]; format: functional
[3] = target: T1, Kappa-type opioid receptor; format: functional
[4] = target: T2, Delta-type opioid receptor (Homo sapiens, UniProt P41143); experiment: HTS Image-Based Screen for Agonists of the DOR Receptor. [Related pubchem assays (depositor defined):AID1777, AID1786, AID2133]; format: functional
[5] = target: T2, Delta-type opioid receptor; experiment: delta opioid receptor blockers – image-based, SAR follow-up (AID 2357); format: functional
[6] = target: T2, Delta-type opioid receptor; experiment: HTS Image-Based Screen for Antagonists of the DOR Receptor. [Related pubchem assays (depositor defined):AID1777, AID1785, AID1786, AID2133]; format: functional
[7] = target: T3, Mu-type opioid receptor (Homo sapiens, UniProt P35372); experiment: mu opioid receptor blockers – image-based, SAR follow-up (AID 2420); format: functional;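 also: compounds added before stimulation of receptor with agonist DAMGO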
[8] = target: T2, Delta-type opioid receptor; experiment: DOR agonists, SAR follow-up, image-based (AID 2370); format: functional
[9] = target: T1, Kappa-type opioid receptor; format: functional; remark: listed apart in the source
[10] = target: T3, Mu-type opioid receptor; experiment: HTS Image-Based Screen for Agonists of the MOR Receptor. [Related pubchem assays (depositor defined):AID1777, AID1785, AID1786, AID2133]; format: functional
[11] = target: T1, Kappa-type opioid receptor; experiment: kappa opioid receptor blockers, image-based, SAR follow-up (AID 2348); format: functional
[12] = target: T3, Mu-type opioid receptor; experiment: mu opioid receptor activators, image-based, SAR follow-up (AID 2352); format: functional
[13] = target: Voltage-dependent T-type calcium channel subunit alpha-1H (Homo sapiens, UniProt O95180); experiment: human CACNA1H calcium influx blockade – cell-based, synthetic library set 1, calcium flux (AID 493022); format: functional
[14] = target: T1, Kappa-type opioid receptor; experiment: kappa opioid receptor blockers, cell-based, luminescence, beta-arrestin, SAR follow-up (AID 2285); format: functional
[15] = target: Hexokinase (Trypanosoma brucei, UniProt Q38C41); experiment: Confirmation assay for inhibitors of Trypanosoma brucei hexokinase 1-Analogue-first series. [Related pubchem assays (depositor defined):AID1430, AID1632, AID2516, AID2560, AID2579, AID2600, AID449725, AID492951]; format: functional
[16] = target: Trypsin (Sus scrofa, UniProt P00761); experiment: trypsin protease activity blockade – biochemical, quenched peptide fluorescence, cherry-pick, selectivity assay for Rce1 protease inhibitor project, dose response (AID 488789)
[17] = target: Cytochrome P450 2C9 (Homo sapiens, UniProt P11712)
[18] = viability of PTEN-deleted HCT116 cells – cell-based, HCT116 PTEN knockout, dose response (AID 1047); format: functional;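 also: HCT116 colon tumor cells with PTEN knocked out; cells exposed to compound for 60 hours before readout; potency for loss of cell viability measured by luminescence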
[19] = viability of HCT116 lacking mutant beta-catenin – cell-based, human colon tumor, dose response (AID 1045); format: functional;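 also: HCT116 colon tumor cells with beta catenin knocked out; cells exposed to compound for 60 hours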
[20] = target: Cytochrome P450 2C19 (Homo sapiens, UniProt P33261); experiment: Cytochrome panel assay with activity outcomes. Panel member name: p450-cyp2c19 Compounds with AC50 equal or less than 10 uM are considered active; format: functional; details: read-out: AC50
[21] = Luminescence Cell-Based Dose Retest to Confirm Inhibitors of Cancer Stem Cells. [Related pubchem assays (depositor defined):AID2717, AID2721]; format: functional; details: Homo sapiens
[22] = tested on: INS1; experiment: INS-1E survival protection against cytokine death – cell-based, luminescence, retest, dose response (AID 449756); format: functional; details: Rattus norvegicus;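 also: cell death triggered by IL-1 beta plus TNF-alpha plus IFN-gamma mixture; protective hits raise ATP signal compared with cytokine alone wells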
[23] = target: Heat shock protein HSP 90-alpha (Homo sapiens, UniProt P07900); format: functional, organism-based
[24] = target: Beta-galactosidase (Escherichia coli, UniProt Q8VNN2); experiment: detection-enzyme interference by beta-gal modulators – biochemical, E. coli enzyme, set 3, artefact control for CCR6 antagonist project, dose response (AID 504712); format: functional
Sequence of Beta-galactosidase (Q8VNN2 whole entry): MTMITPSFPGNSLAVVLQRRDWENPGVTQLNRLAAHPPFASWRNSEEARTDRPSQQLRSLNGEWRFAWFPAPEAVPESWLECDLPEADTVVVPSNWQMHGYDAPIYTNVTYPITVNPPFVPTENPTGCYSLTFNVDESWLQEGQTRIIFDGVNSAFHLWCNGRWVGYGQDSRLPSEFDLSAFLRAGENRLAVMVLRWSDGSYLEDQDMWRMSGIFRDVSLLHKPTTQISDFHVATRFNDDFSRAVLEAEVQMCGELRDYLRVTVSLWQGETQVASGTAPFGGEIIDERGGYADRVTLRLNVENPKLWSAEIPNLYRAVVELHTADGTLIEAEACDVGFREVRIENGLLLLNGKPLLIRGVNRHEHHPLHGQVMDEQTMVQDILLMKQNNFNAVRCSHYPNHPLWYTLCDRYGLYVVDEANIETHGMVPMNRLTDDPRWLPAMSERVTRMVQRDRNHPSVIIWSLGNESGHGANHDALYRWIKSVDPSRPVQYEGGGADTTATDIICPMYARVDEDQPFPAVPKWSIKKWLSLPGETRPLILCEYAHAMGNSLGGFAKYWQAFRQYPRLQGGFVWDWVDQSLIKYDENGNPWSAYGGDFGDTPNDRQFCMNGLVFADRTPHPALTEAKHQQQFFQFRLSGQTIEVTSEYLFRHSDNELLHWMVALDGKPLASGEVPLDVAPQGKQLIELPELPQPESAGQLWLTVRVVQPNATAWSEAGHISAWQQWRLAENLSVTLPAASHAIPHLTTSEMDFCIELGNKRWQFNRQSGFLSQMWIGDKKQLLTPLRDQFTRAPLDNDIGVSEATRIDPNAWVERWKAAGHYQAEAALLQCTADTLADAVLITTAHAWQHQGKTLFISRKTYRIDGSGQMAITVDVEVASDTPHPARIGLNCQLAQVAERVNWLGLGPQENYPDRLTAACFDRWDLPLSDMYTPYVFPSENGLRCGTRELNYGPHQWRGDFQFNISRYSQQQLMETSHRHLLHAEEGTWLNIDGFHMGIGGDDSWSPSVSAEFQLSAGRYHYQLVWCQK

T1 sequence (P41145 whole entry): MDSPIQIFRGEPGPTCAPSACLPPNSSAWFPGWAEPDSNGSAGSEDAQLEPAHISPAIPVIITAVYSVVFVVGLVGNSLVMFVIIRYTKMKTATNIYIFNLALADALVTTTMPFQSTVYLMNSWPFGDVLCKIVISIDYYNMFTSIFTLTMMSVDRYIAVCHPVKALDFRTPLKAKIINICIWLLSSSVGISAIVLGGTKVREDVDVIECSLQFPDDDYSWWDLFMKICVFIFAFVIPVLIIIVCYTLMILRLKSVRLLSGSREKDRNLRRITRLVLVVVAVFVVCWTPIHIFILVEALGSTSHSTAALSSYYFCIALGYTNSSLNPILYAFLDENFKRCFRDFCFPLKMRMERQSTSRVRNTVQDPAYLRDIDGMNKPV
T2 sequence (P41143 whole entry): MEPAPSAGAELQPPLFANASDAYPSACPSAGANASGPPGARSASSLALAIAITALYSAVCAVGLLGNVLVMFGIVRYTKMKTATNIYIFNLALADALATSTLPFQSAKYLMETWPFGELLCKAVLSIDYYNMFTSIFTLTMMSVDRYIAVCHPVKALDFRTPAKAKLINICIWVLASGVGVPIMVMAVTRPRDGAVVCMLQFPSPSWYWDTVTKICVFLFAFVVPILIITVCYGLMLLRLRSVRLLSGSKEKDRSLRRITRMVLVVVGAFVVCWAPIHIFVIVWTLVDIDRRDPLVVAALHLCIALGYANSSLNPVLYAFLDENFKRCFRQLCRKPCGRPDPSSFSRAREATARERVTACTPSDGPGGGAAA
T3 sequence (P35372 whole entry): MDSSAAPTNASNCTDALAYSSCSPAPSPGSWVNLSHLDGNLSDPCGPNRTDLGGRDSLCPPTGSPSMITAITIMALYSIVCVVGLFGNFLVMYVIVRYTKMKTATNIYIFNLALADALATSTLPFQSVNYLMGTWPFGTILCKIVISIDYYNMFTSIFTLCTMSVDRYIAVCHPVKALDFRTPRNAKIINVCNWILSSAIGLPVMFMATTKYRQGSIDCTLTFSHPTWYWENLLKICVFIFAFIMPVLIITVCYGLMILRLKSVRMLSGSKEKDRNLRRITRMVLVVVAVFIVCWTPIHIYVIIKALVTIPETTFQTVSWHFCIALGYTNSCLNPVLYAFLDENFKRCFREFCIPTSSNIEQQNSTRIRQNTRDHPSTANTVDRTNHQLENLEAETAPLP
Sequence of Voltage-dependent T-type calcium channel subunit alpha-1H (O95180 whole entry): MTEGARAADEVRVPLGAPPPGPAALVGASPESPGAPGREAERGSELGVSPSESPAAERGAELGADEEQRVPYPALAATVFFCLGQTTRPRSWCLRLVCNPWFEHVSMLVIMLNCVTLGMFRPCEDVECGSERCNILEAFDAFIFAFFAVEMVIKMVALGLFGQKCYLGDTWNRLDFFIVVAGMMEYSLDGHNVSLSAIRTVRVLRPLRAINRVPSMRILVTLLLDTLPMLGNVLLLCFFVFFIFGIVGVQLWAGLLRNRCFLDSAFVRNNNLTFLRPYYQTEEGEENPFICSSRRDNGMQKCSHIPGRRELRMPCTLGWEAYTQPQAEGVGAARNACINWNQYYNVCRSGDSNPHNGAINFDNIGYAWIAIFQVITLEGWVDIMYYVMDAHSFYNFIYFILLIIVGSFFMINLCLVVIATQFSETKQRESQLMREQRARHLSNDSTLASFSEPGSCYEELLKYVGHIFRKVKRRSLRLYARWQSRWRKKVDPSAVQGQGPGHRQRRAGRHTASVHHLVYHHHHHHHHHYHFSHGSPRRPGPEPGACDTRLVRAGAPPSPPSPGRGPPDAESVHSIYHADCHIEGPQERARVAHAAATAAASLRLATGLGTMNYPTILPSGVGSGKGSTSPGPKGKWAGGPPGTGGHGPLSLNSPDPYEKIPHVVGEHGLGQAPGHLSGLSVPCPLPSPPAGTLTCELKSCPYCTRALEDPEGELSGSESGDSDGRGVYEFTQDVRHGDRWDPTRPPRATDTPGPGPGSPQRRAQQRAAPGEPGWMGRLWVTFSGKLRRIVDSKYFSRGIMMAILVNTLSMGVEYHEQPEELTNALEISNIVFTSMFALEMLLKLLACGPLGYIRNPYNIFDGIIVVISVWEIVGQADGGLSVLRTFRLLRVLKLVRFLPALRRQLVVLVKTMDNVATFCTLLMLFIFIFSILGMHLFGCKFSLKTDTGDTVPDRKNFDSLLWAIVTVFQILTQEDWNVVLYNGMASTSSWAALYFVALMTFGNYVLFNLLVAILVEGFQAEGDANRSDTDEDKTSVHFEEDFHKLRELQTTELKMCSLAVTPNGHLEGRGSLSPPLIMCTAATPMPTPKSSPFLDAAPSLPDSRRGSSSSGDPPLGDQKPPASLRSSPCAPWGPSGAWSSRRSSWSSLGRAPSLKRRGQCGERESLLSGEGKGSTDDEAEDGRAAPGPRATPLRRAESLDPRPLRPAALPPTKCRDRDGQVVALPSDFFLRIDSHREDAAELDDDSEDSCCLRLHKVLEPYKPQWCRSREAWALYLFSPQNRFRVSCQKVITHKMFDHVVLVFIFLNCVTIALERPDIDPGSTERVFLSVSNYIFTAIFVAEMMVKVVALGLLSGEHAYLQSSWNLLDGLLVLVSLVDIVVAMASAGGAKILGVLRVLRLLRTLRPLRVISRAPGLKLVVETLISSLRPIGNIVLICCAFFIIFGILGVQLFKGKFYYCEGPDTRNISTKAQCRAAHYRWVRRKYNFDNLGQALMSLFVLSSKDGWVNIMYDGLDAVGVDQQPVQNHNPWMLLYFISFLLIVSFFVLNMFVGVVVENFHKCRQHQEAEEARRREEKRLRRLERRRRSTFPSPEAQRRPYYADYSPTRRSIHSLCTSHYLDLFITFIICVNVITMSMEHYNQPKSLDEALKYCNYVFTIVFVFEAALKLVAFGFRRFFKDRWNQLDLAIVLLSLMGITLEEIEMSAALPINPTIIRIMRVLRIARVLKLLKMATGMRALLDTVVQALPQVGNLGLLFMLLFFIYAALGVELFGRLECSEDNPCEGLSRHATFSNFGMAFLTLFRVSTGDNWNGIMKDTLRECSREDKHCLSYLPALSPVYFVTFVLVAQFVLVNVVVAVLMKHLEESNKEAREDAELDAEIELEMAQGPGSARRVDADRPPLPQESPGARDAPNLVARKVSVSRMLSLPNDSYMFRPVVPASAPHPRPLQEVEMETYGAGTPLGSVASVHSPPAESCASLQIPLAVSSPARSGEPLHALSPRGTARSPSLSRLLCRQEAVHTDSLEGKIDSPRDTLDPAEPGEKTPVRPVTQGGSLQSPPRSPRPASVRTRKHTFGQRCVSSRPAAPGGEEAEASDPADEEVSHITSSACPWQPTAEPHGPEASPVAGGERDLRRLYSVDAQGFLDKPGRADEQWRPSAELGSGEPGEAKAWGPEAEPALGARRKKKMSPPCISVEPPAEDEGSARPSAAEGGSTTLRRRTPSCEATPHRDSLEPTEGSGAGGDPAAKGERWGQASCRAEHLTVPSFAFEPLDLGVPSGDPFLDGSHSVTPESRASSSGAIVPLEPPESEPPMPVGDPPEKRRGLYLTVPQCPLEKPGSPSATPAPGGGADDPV
Sequence of Cytochrome P450 2C9 (P11712 whole entry): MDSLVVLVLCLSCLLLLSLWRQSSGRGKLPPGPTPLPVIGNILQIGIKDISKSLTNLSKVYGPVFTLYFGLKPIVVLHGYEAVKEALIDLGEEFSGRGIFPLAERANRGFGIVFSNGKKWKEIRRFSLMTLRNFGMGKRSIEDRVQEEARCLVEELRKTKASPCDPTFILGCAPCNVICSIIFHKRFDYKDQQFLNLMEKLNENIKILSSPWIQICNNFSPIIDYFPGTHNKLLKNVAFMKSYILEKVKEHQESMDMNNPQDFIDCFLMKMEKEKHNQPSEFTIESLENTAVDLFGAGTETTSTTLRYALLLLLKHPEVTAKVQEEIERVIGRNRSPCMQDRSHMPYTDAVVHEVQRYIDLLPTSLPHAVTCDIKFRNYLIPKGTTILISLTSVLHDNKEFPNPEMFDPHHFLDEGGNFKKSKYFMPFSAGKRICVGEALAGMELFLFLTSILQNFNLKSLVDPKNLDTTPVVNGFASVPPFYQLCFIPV

SMILES: COc1ccc(C(=O)Nc2cc(C)ccc2C(=O)O)cc1
IC50 [15]: > 25 µM (inactive)

SMILES: Cc1ccc(S(=O)(=O)c2cn(C)c3cc(N4CCOCC4)c(F)cc3c2=O)cc1
AC50 [16]: 55.8 µM (active)

SMILES: Cc1cccc(NC(=S)N/N=C/c2ccc([N+](=O)[O-])s2)c1
AC50 [17]: 1.78 µM (inconclusive)
EC50 [18]: 3.06 µM (active)
EC50 [19]: 1.95 µM (active)
AC50 [20]: 1.12 µM (inconclusive)
AC50 [21]: 1.84 µM (active)
AC50 [22]: 3.86 µM (active)
AC50 [23]: 15.6 µM (active)
IC50 [24]: > 66.6 µM (inactive)

Results, then the compound that gave them:

EC50 [1]: 0.929 µM (active)
EC50 [2]: 1.86 µM (active)
EC50 [3]: 2.21 µM
EC50 [4]: > 32 µM (inactive)
IC50 [5]: > 32 µM (inactive)
IC50 [6]: > 32 µM (inactive)
IC50 [7]: > 32 µM (inactive)
EC50 [8]: > 32 µM (inactive)
EC50 [9]: 1.25 µM
EC50 [10]: > 32 µM (inactive)
IC50 [11]: > 32 µM (inactive)
EC50 [12]: > 32 µM (inactive)
SMILES: Clc1ccc(CSc2nnc(-c3ccccn3)n2Cc2ccco2)c(Cl)c1

EC50 [13]: 4.6 µM (active)
SMILES: O=C(COc1ccccc1Cl)Nc1nnc(-c2ccc(F)cc2)o1

EC50 [1]: > 32 µM (inactive)
IC50 [5]: > 32 µM (inactive)
IC50 [7]: > 32 µM (inactive)
EC50 [8]: > 32 µM (inactive)
IC50 [14]: > 10 µM (inactive)
IC50 [11]: 15.2 µM (inactive)
EC50 [12]: > 32 µM (inactive)
SMILES: O=C(Cn1c(=O)c2cccn2c2cccnc21)NCCCN1CCN(c2ccc(F)cc2)CC1
